Tests used:
[1] = test system: localized gynoid lipodystrophy of the thighs and of the buttocks (LGL); settings: small dose, topical
Procedure: The applicant carried out a comparative trial intended to evaluate the efficacy of the composition of the invention, as a local topical application, in patients with gynoid lipodystrophy of the thighs and of the buttocks, in comparison with a placebo, considered as a control group. Concomitantly, the effects of the composition on the softness and firmness of the skin were assessed.
It is a randomized comparative double blind monocenter trial comprising two groups of treatment of localized gynoid lipodystrophy of the thighs and of the buttocks (LGL):
This trial lasted for 9 weeks and comprised a one-week inclusion phase, followed by an 8-week treatment phase. It was carried out in patients suffering from LGL.
Evaluation carried out during the inclusion visit, at D28, and at the final visit for the principal and secondary criteria.
1.-Measurement of the adipose panicle by ultrasound scan, measured with the aid of a wide probe, by looking at the great trochanter of each femur.
The probe was placed on a tripod, at the constant level of the ground for each subject. The measurement was carried out after acquiring the last possible image by detaching the probe from the skin plane.

[2] = no significant difference in weight versus placebo at D28 or D56

What does the source list for `CN1CCCC1c1cccnc1` (centres unmarked) [Nicotine, nicotine]?
reduction of the thickness of localized gynoid lipodystrophy (cellulite), on average [1]: 8.9%; overall slimming effect [2]: no overall slimming effect

From US20040037860A1, “Free nicotine based cosmetic composition and uses thereof” (COLUMBUS, priority 2001, published 2004)
